Experimental data taken from PMC3726336, “Product inhibition of cellulases studied with ^14C-labeled cellulose substrates” (Biotechnology for Biofuels, 2013).

Key:
TaCel7A = TaCel7A (Thermoascus aurantiacus, UniProt A7WNU2); assay: Cellobiose inhibition of MUL hydrolysis by TaCel7A; type: biochemical; settings: MUL substrate (5 μM)
Text: The cellobiose inhibition of GH7 CBHs is most often studied on low-Mw model substrates. However, it has been shown that the inhibition of CBHs acting on low-Mw substrates appears to be much stronger than that on cellulose substrates. The Ki values for cellobiose inhibition of GH7 CBHs measured on low-Mw substrates are in the micromolar range [44, 51, 52], whereas those measured on cellulose are in the low- to high-millimolar range [28, 31, 32]. […] Unfortunately, the inhibition of this enzyme on cellulose has not been studied. We also studied the cellobiose inhibition of GH7 CBHs acting on MUL. The initial rates of MUL hydrolysis measured in the presence and absence of added cellobiose were first analyzed according to Equation 1, and the IC50 values were found using Equation 2. […] The inhibition of MUL hydrolysis is attributable to the binding of cellobiose to the product sites (+1/+2) of TrCel7A [52]. […]
For the inhibition of enzyme acting on the low-Mw substrate, the initial rates of the hydrolysis of MUL in the presence and absence of added cellobiose were followed. […] Reactions were stopped by the addition of NH3 (final concentration 0.1 M), and the released 4-methylumbelliferone was quantified by fluorescence using excitation and emission wavelengths of 360 nm and 450 nm, respectively.

TrCel6A = biological target: T1, TrCel6A (Trichoderma reesei, UniProt P07987); assay: Inhibition of hydrolysis of 14C-BMCC by TrCel6A; type: biochemical
T1 construct: TrCel6A was purified from the culture filtrate of Tr QM 9414 as described previously; made in house; host or cells: Trichoderma reesei QM 9414 culture filtrate (native producer)
T1 sequence (P07987 25-471): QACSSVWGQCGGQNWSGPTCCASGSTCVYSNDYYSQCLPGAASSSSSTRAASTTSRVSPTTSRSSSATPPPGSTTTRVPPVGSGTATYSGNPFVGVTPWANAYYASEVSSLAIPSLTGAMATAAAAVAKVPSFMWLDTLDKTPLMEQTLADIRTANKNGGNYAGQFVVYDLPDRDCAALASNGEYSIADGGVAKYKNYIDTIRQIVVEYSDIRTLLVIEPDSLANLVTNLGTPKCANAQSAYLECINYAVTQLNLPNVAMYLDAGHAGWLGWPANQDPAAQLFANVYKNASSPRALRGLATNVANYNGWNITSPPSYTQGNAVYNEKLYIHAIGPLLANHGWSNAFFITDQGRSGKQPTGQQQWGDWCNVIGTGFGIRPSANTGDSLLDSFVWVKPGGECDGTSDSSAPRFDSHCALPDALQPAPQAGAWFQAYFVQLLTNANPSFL
Text: Here, we characterized the cellobiose and glucose inhibition of TrCel6A and its thermophilic counterpart, CtCel6A [9, 63]. First, the cellobiose inhibition of the synergistic hydrolysis of ^14C-BC by TrCel6A and TrCel5A was studied (Figure 7A). As TrCel6A was less sensitive to cellobiose inhibition than TrCel7A, the contribution of the cellobiose released during hydrolysis was not significant, and an average (DCB/DCB=0) over all time points was used in plotting (DCB/DCB=0) versus [cellobiose] (Figure 7D). No significant systematic variation of DCB/DCB=0 depending on hydrolysis time was observed. As in the case of GH7 CBHs, the IC50 value was found using Equations 5 and 6. Because the IC50 value for synergistic hydrolysis (Table 3) was of the same order as the apparent Ki value reported for TrCel5A [31], we further tested the inhibition of individual TrCel6A. BC is not a good substrate for TrCel6A, but its acid-treated derivative, BMCC, is readily degraded by the enzyme. Therefore, we prepared ^14C-BMCC by the heterogeneous acid hydrolysis of ^14C-BC. […]
GH6 CBHs were assessed by observing the hydrolysis of ^14C-BMCC. ^14C-BMCC (0.25 g l^-1) was incubated (with shaking at 350 rpm) with CBH (0.25 μM) and N188BG (0.06 μM) in 50 mM sodium acetate buffer, pH 5.0, containing BSA (0.1 g l^-1). […]

TaCel7A, sequence (A7WNU2 entry or part of it): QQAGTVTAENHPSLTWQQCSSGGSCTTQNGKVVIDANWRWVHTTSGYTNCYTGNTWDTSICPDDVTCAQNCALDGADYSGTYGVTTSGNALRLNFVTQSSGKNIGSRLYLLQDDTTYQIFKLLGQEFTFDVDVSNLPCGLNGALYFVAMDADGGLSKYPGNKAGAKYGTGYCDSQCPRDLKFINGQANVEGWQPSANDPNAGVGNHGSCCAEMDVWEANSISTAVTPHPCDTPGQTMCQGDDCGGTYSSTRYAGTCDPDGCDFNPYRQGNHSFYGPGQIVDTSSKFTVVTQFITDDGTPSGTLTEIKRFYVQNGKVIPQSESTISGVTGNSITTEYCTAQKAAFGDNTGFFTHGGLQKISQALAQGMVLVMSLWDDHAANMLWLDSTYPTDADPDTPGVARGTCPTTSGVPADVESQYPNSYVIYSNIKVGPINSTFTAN

`O=C[C@H](O)[C@@H](O)[C@H](O[C@@H]1O[C@H](CO)[C@@H](O)[C@H](O)[C@H]1O)[C@H](O)CO` [cellobiose, Cellobiose] was tested, and the Ki (TaCel7A; 35°C) was 176 µM, the Ki (TaCel7A; 50°C) was 355 µM and the IC50 (TrCel6A) was 20000 ± 1400 µM.
